Reference: patent US20130158073A1, “Methods Of Diminishing Co-Abuse Potential” (priority 2004, published 2013)
Counter-ions that a name gives are not always drawn.

Key:
male Sprague-Dawley rats = details: coadministered with 10% w/v ethanol
[1] = cited from earlier work
[2] = co-administration of racemic methylphenidate and ethanol

Compound: COC(=O)C(c1ccccc1)C1CCCCN1 (racemic) [d,l-MPH, d,l-methylphenidate HCl]
- potency compared to ethanol/cocaine for discriminative stimulus effects (male Sprague-Dawley rats; i.p.): equipotent
- potency compared to ethanol/cocaine for response rate effects (male Sprague-Dawley rats; i.p.): equipotent
- rates of response compared with saline control test sessions, at doses producing full ethanol/cocaine-lever responding (male Sprague-Dawley rats; i.p. 15 minutes before session): do not decrease rates of response
- isomer excreted in the urine [1, 2]: primarily as the d-isomer
- ethylphenidate metabolite in plasma and urine ([1]; human subjects, co-administration of a single dose of methylphenidate and ethanol): ethylphenidate was also detected in plasma and urine

Compound: CCOC(=O)C(c1ccccc1)C1CCCCN1 (centres unmarked) [Ethylphenidate]
- isomer excreted in the urine [1, 2]: primarily as the l-isomer

Compound: COC(=O)[C@H](c1ccccc1)[C@H]1CCCCN1 [d-MPH, dexmethylphenidate HCl]
- potency compared to ethanol/d,l-MPH (male Sprague-Dawley rats; i.p.): half as potent

Compound: COC(=O)[C@@H](c1ccccc1)[C@@H]1CCCCN1 [l-methylphenidate]
- transesterification after co-administration of racemic methylphenidate and ethanol [1, 2]: transesterifies enantioselectively to l-ethylphenidate
